What all share (experiment): ≥ marks a high value that may be exact or a test limit, other limits are often not marked, values filed in µg/mL are converted to µM
In test [1] the test system is Saccharomyces cerevisiae PEP 4/3l.
The subject of test [2] is Streptococcus pyogenes ATCC 19615.
Test [3] relates to Staphylococcus aureus ATCC 43300.
In test [4] the test system is Staphylococcus haemolyticus.
Test [5] relates to Enterococcus faecalis ATCC 29212.
Test [6] concerns Escherichia coli.
Test [7] has as its system Klebsiella pneumoniae.
Test [8] deals with Pseudomonas aeruginosa.
In test [9] the test system is Staphylococcus aureus SAP 0017.
Test [10] concerns Staphylococcus aureus ATCC 25923.
Test [11] concerns Escherichia coli W160-37.
The test system of test [12] is Enterococcus faecalis.
In test [13] the test system is Acinetobacter baumannii.
Test [14] relates to Staphylococcus aureus ATCC 8530.
Test [15] deals with Salmonella typhimurium.
Test [16] deals with Staphylococcus epidermidis.
For test [17], the system named is Escherichia coli ATCC 25922.
Test [18] deals with Escherichia coli DH5alpha.
Test [19] has as its system Listeria monocytogenes NCTC 7973.
Test [20] deals with Corynebacterium xerosis.
The subject of test [21] is Malassezia furfur KCTC 7744.
Test [22] relates to Candida albicans ATCC 90028.
Test [23] concerns Staphylococcus aureus.
The test system of test [24] is Enterococcus faecium ATCC 19434.
The test system of test [25] is Escherichia coli O157:H7 ATCC 43895.
For test [26], the system named is Pseudomonas aeruginosa ATCC 27853.
For test [27], the system named is Enterococcus faecium.
In test [28] the test system is Aspergillus flavus KCTC 1375.
Test [29] has as its system Staphylococcus aureus 1.
Test [30] deals with Pseudomonas aeruginosa 1.
Test [31] deals with Pseudomonas aeruginosa 2.
Test [32] concerns Pseudomonas aeruginosa 5.
Test [33] concerns Staphylococcus aureus 4.
Test [34] concerns Escherichia coli O157.

≈ marks a conversion by molar mass, not a printed value. Where “and” joins values, the source holds several entries; their conditions need not be identical. Equal values may be shown once.

Data on three compounds can be found in DBAASP.

In general, MIC refers to the smallest concentration in the dilution series that meets the test's criterion for growth inhibition. With `CC[C@H](C)[C@H](N)C(=O)N[C@@H](CC(C)C)C(=O)N[C@@H](C)C(=O)N[C@@H](Cc1c[nH]c2ccccc12)C(=O)N[C@@H](CCCCN)C(=O)N[C@@H](Cc1c[nH]c2ccccc12)C(=O)N[C@@H](C)C(=O)N[C@@H](Cc1c[nH]c2ccccc12)C(=O)N[C@@H](Cc1c[nH]c2ccccc12)C(=O)N[C@@H](C)C(=O)N[C@@H](Cc1c[nH]c2ccccc12)C(=O)N[C@@H](CCCN=C(N)N)C(=O)N[C@@H](CCCN=C(N)N)C(N)=O` [ILAWKWAWWAWRR], the minimal inhibitory concentration (MIC) in test [1] is 6.7 µM (≈ 12.2 µg/mL); in test [2], 0.547 µM (≈ 0.999 µg/mL); in test [3], 14.7 µM (≈ 26.9 µg/mL); in test [4], 1.09 µM and 0.547 µM; in [5], 4.37 µM (≈ 8 µg/mL); in test [6], 4.37 µM (≈ 8 µg/mL). Also, the MIC was 50 µM (≈ 91.4 µg/mL) in test [7]; more than 100 µM in [8]; 2.19 µM (≈ 4 µg/mL) in test [9]; 2.19 µM (≈ 4 µg/mL) in [10]; 12.2 µM (≈ 22.3 µg/mL) in test [11]; 2 µM (≈ 3.66 µg/mL) in test [12]. Moreover, the MIC in test [13] is 5.6 µM (≈ 10.2 µg/mL); in test [14], 1.55 µM (≈ 2.83 µg/mL); in test [15], not below 50 µM; in [16] it was 1.09 µM (≈ 2 µg/mL); in [17], 14.7 µM (≈ 26.9 µg/mL); in test [18], not below 45 µM. The MIC in test [19] and in [20] was 0.547 µM (≈ 0.999 µg/mL) in each case.

Regarding `CC(C)[C@H](NC(=O)[C@H](Cc1cnc[nH]1)NC(=O)[C@H](C)NC(=O)[C@H](C)NC(=O)[C@H](CCCCN)NC(=O)[C@H](CCCCN)NC(=O)[C@H](Cc1ccccc1)NC(=O)[C@H](Cc1ccccc1)NC(=O)[C@H](CO)NC(=O)CNC(=O)[C@H](Cc1c[nH]c2ccccc12)NC(=O)CN)C(=O)NCC(=O)N[C@@H](CCCCN)C(=O)N[C@@H](Cc1cnc[nH]1)C(=O)N[C@H](C(=O)NCC(=O)N[C@@H](CCCCN)C(=O)N[C@@H](C)C(N)=O)C(C)C` [GWGSFFKKAAHVGKHVGKA], the minimal inhibitory concentration (MIC) in test [21] was not below 40 µM; in [22], not below 40 µM; in [6], 28.3 µM (≈ 56.9 µg/mL); in test [23], 14.1 µM (≈ 28.4 µg/mL); in test [24] it was 28.3 µM (≈ 56.9 µg/mL); in test [8], 28.3 µM (≈ 56.9 µg/mL). In addition, the MIC in test [10] was 20 µM (≈ 40.2 µg/mL); in [25], 20 µM (≈ 40.2 µg/mL); in test [26], 20 µM (≈ 40.2 µg/mL); in test [27], 28.3 µM (≈ 56.9 µg/mL); in test [28], 28.3 µM (≈ 56.9 µg/mL).

`CC[C@H](C)[C@H](NC(=O)[C@H](CC(C)C)NC(=O)[C@H](CCCN=C(N)N)NC(=O)[C@@H](NC(=O)[C@H](C)NC(=O)[C@H](CCCCN)NC(=O)[C@H](CCCN=C(N)N)NC(=O)[C@H](CC(C)C)NC(=O)[C@@H](N)CCCN=C(N)N)C(C)C)C(=O)N[C@@H](CCCCN)C(=O)O` [RLRKAVRLIK]: the minimum inhibitory concentration (MIC) in test [29] stood at 2.5 µM (≈ 3.13 µg/mL); in [23] it was 14.1 µM (≈ 17.7 µg/mL); in test [30], 5 µM (≈ 6.26 µg/mL); in [8], 10 µM (≈ 12.5 µg/mL); in test [31] it was 3.54 µM (≈ 4.43 µg/mL); in test [32], 2.5 µM (≈ 3.13 µg/mL). Also, the minimum inhibitory concentration (MIC) in test [33], in test [34] and in [27] was 5 µM (≈ 6.26 µg/mL) in each case.
